Measurements from ChEMBL document CHEMBL1201862, “PubChem BioAssay data set” (2004).
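Interpolation was linear, between the two tested concentrations surrounding the appropriate level; five concentrations were tested over 48 hours in 96-well plates. At the GI50, growth is halved.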 The source made the active and inactive calls. No stated cut-off is given here; in the data, active = GI50 up to about 1.1 µM and inactive = higher.

Tests used:
Experiment in all cases: DTP human tumour cell line panel, 48 h
RXF 393 = system: RXF 393
SF-295 = system: SF-295
LOX IMVI = system: LOX IMVI
MDA-MB-231 = system: MDA-MB-231
OVCAR-4 = system: OVCAR-4
SR = system: SR
HOP-62 = system: HOP-62
786-0 = system: 786-0
SK-MEL-5 = system: SK-MEL-5
HCT-116 = system: HCT-116
MDA-MB-435 = system: MDA-MB-435
NCI-H522 = system: NCI-H522
EKVX = system: EKVX
SNB-19 = system: SNB-19
UACC-257 = system: UACC-257
SN12C = system: SN12C
A549 = system: A549
IGROV-1 = system: IGROV-1
HOP-92 = system: HOP-92
K562 = system: K562
SNB-75 = system: SNB-75
DU-145 = system: DU-145
ACHN = system: ACHN
COLO 205 = system: COLO 205
RPMI-8226 = system: RPMI-8226
NCI/ADR-RES = system: NCI/ADR-RES
A498 = system: A498
M14 = system: M14
U-251 = system: U-251
NCI-H226 = system: NCI-H226
CCRF-CEM = system: CCRF-CEM
Malme-3M = system: Malme-3M
UO-31 = system: UO-31
OVCAR-5 = system: OVCAR-5
HCC 2998 = system: HCC 2998
HT-29 = system: HT-29
BT-549 = system: BT-549
HL-60 = system: HL-60
SK-MEL-2 = system: SK-MEL-2
NCI-H23 = system: NCI-H23
MDA-N = system: MDA-N
SF-539 = system: SF-539
KM12 = system: KM12
OVCAR-8 = system: OVCAR-8
CAKI-1 = system: CAKI-1
OVCAR-3 = system: OVCAR-3
SK-MEL-28 = system: SK-MEL-28
NCI-H460 = system: NCI-H460
MOLT-4 = system: MOLT-4
PC-3 = system: PC-3
MCF7 = system: MCF7
UACC-62 = system: UACC-62
SW-620 = system: SW-620
HCT-15 = system: HCT-15
SF-268 = system: SF-268
TK-10 = system: TK-10

For COC1(OC)C(/C(N)=C\O)=NC(C)(C)N1O, which GI50 (RXF 393) is on record?
The GI50 was > 100 µM (inactive).

What about the GI50 (SF-295) of the same compound?
Its GI50 is > 100 µM (inactive).

And the GI50 (LOX IMVI)?
The GI50 was > 100 µM (inactive).

And the GI50 (MDA-MB-231)?
The GI50 was > 100 µM (inactive).

What about the GI50 (OVCAR-4) of the same compound?
The GI50 was > 100 µM (inactive).

And the GI50 (SR)?
The GI50 was > 100 µM (inactive).

What about the GI50 (HOP-62) of the same compound?
The GI50 was > 100 µM (inactive).

What about the GI50 (786-0) of the same compound?
The GI50 was > 100 µM (inactive).

And the GI50 (SK-MEL-5)?
The GI50 was 71.6 µM (inactive).

What about the GI50 (HCT-116) of the same compound?
The GI50 was > 100 µM (inactive).

What about the GI50 (MDA-MB-435) of the same compound?
The GI50 was > 100 µM (inactive).

And the GI50 (NCI-H522)?
The GI50 was > 100 µM (inactive).

What about the GI50 (EKVX) of the same compound?
Its GI50 is > 100 µM (inactive).

And the GI50 (SNB-19)?
The GI50 was > 100 µM (inactive).

And the GI50 (UACC-257)?
The GI50 was > 100 µM (inactive).

And the GI50 (SN12C)?
Its GI50 is > 100 µM (inactive).

And the GI50 (A549)?
Its GI50 is > 100 µM (inactive).

And the GI50 (IGROV-1)?
The GI50 was > 100 µM (inactive).

And the GI50 (HOP-92)?
The GI50 was > 100 µM (inactive).

And the GI50 (K562)?
Its GI50 is > 100 µM (inactive).

What about the GI50 (SNB-75) of the same compound?
The GI50 was 66.2 µM (inactive).

What about the GI50 (DU-145) of the same compound?
Its GI50 is > 100 µM (inactive).

What about the GI50 (ACHN) of the same compound?
Its GI50 is > 100 µM (inactive).

And the GI50 (COLO 205)?
Its GI50 is 57 µM (inactive).

And the GI50 (RPMI-8226)?
Its GI50 is > 100 µM (inactive).

And the GI50 (NCI/ADR-RES)?
The GI50 was > 100 µM (inactive).

What about the GI50 (A498) of the same compound?
The GI50 was > 100 µM (inactive).

And the GI50 (M14)?
The GI50 was > 100 µM (inactive).

And the GI50 (U-251)?
The GI50 was > 100 µM (inactive).

What about the GI50 (NCI-H226) of the same compound?
Its GI50 is > 100 µM (inactive).

And the GI50 (CCRF-CEM)?
The GI50 was 37.1 µM (inactive).

And the GI50 (Malme-3M)?
Its GI50 is > 100 µM (inactive).

What about the GI50 (UO-31) of the same compound?
Its GI50 is > 100 µM (inactive).

What about the GI50 (OVCAR-5) of the same compound?
The GI50 was > 100 µM (inactive).

What about the GI50 (HCC 2998) of the same compound?
Its GI50 is > 100 µM (inactive).

And the GI50 (HT-29)?
The GI50 was > 100 µM (inactive).

What about the GI50 (BT-549) of the same compound?
The GI50 was > 100 µM (inactive).

And the GI50 (HL-60)?
The GI50 was 20.4 µM (inactive).

And the GI50 (SK-MEL-2)?
The GI50 was > 100 µM (inactive).

What about the GI50 (NCI-H23) of the same compound?
The GI50 was > 100 µM (inactive).

What about the GI50 (MDA-N) of the same compound?
The GI50 was > 100 µM (inactive).

What about the GI50 (SF-539) of the same compound?
The GI50 was > 100 µM (inactive).

What about the GI50 (KM12) of the same compound?
The GI50 was > 100 µM (inactive).

And the GI50 (OVCAR-8)?
The GI50 was > 100 µM (inactive).

And the GI50 (CAKI-1)?
The GI50 was > 100 µM (inactive).

What about the GI50 (OVCAR-3) of the same compound?
The GI50 was 29.9 µM (inactive).

What about the GI50 (SK-MEL-28) of the same compound?
Its GI50 is > 100 µM (inactive).

What about the GI50 (NCI-H460) of the same compound?
Its GI50 is > 100 µM (inactive).

And the GI50 (MOLT-4)?
The GI50 was 66.5 µM (inactive).

What about the GI50 (PC-3) of the same compound?
Its GI50 is > 100 µM (inactive).

And the GI50 (MCF7)?
The GI50 was 74.6 µM (inactive).

What about the GI50 (UACC-62) of the same compound?
Its GI50 is > 100 µM (inactive).

And the GI50 (SW-620)?
Its GI50 is > 100 µM (inactive).

How did the GI50 (SF-295) turn out when N[C@H]1CCc2c1nc1c(c2-c2ccccc2)CC[C@@H]1N was run?
The GI50 was 18.5 µM (inactive).

What about the GI50 (LOX IMVI) of the same compound?
The GI50 was 14 µM (inactive).

And the GI50 (MDA-MB-231)?
Its GI50 is 18.3 µM (inactive).

And the GI50 (OVCAR-4)?
The GI50 was 50.8 µM (inactive).

What about the GI50 (HCT-15) of the same compound?
The GI50 was 34.4 µM.

And the GI50 (SR)?
Its GI50 is 31.5 µM (inactive).

And the GI50 (HOP-62)?
The GI50 was 31.7 µM (inactive).

And the GI50 (786-0)?
Its GI50 is 14.7 µM (inactive).

What about the GI50 (SK-MEL-5) of the same compound?
The GI50 was 15.9 µM (inactive).

What about the GI50 (HCT-116) of the same compound?
Its GI50 is 18.1 µM (inactive).

And the GI50 (MDA-MB-435)?
Its GI50 is 15.8 µM (inactive).

And the GI50 (NCI-H522)?
The GI50 was 16.2 µM (inactive).

And the GI50 (EKVX)?
The GI50 was > 100 µM (inactive).

What about the GI50 (SNB-19) of the same compound?
Its GI50 is 82.8 µM (inactive).

And the GI50 (UACC-257)?
The GI50 was > 10 µM (inactive).

What about the GI50 (SN12C) of the same compound?
Its GI50 is 44.1 µM (inactive).

What about the GI50 (A549) of the same compound?
The GI50 was 34 µM (inactive).

What about the GI50 (IGROV-1) of the same compound?
Its GI50 is 14.7 µM (inactive).

And the GI50 (HOP-92)?
Its GI50 is 21.3 µM (inactive).

What about the GI50 (K562) of the same compound?
Its GI50 is 12.3 µM (inactive).

What about the GI50 (SNB-75) of the same compound?
Its GI50 is 11.9 µM (inactive).

And the GI50 (DU-145)?
The GI50 was 24.2 µM (inactive).

And the GI50 (ACHN)?
Its GI50 is 40.1 µM (inactive).

What about the GI50 (COLO 205) of the same compound?
Its GI50 is 20.6 µM (inactive).

What about the GI50 (RPMI-8226) of the same compound?
The GI50 was 34.4 µM (inactive).

And the GI50 (NCI/ADR-RES)?
The GI50 was 46.9 µM (inactive).

What about the GI50 (M14) of the same compound?
Its GI50 is 16.3 µM (inactive).

And the GI50 (U-251)?
The GI50 was 20.5 µM (inactive).

And the GI50 (SF-268)?
Its GI50 is 18.1 µM (inactive).

And the GI50 (NCI-H226)?
The GI50 was 33.6 µM (inactive).

And the GI50 (CCRF-CEM)?
The GI50 was 17.6 µM (inactive).

What about the GI50 (Malme-3M) of the same compound?
The GI50 was 16.7 µM (inactive).

And the GI50 (OVCAR-5)?
The GI50 was 18.3 µM (inactive).

And the GI50 (HCC 2998)?
Its GI50 is 21.4 µM (inactive).

And the GI50 (HT-29)?
Its GI50 is 11.9 µM (inactive).

And the GI50 (BT-549)?
Its GI50 is 12.4 µM (inactive).

What about the GI50 (HL-60) of the same compound?
The GI50 was 15.7 µM (inactive).

What about the GI50 (TK-10) of the same compound?
The GI50 was 28.3 µM (inactive).

What about the GI50 (SK-MEL-2) of the same compound?
The GI50 was 18.5 µM (inactive).

What about the GI50 (NCI-H23) of the same compound?
Its GI50 is 25.2 µM (inactive).

And the GI50 (SF-539)?
The GI50 was 16.1 µM (inactive).

What about the GI50 (KM12) of the same compound?
The GI50 was 28.9 µM (inactive).

And the GI50 (OVCAR-8)?
Its GI50 is 39.8 µM (inactive).

And the GI50 (CAKI-1)?
Its GI50 is 14.8 µM (inactive).

And the GI50 (NCI-H460)?
The GI50 was 25.6 µM (inactive).

What about the GI50 (MOLT-4) of the same compound?
The GI50 was 8.73 µM (inactive).

And the GI50 (PC-3)?
Its GI50 is 15.3 µM (inactive).

And the GI50 (MCF7)?
Its GI50 is 21.8 µM (inactive).

What about the GI50 (SW-620) of the same compound?
The GI50 was 12.3 µM (inactive).
